Patent US20050112066A1, “Complexes of cyclic polyaza chelators with cations of alkaline earth metals for enhanced biological activity” (CONCAT LP, a California Limited Partnership, priority 2003, published 2005)
In brackets after ≈: the same amount, converted by molar mass. Read-outs that look alike come from different tables or passages of the source.

Assays:
Corynebacterium Xerosis = assay: minimum inhibitory concentration against skin bacteria; format: cell-based
Method: This effect is unexpected since the presence of cations other than those of first transition series elements would be expected to inhibit the rate and extent of complexation of the first transition series elements by both the cyclic and linear chelators, albeit to differing degrees.
Two chelators were compared in terms of their minimum inhibitory concentrations (MIC) against the common skin bacteria Corynebacterium Xerosis in media containing either 3.7 mg/L or 137 mg/L of Ca(II). The two chelators were N,N′,N″-tri(dihydroxyphosphoryl methyl)-1,4,7-triazacyclononane (within the scope of the present invention) and diethylene triamine pentaacetic acid (DTPA) (outside the scope of the present invention). The MIC for the triazacyclononane was 8 μg/mL in medium containing 3.7 mg/L of Ca(II), and 5 μg/mL in medium containing 137 mg/L of Ca(II).

[1] = tested on: HFF (human foreskin fibroblasts); assay: toxicity toward nonproliferating mammalian cells in vitro; format: cell-based; details: 0.3 mM; mature, nonreplicating HFF cultures in maintenance media; five-day period of observation
Method: This example illustrates the relatively low toxicity of a representative example of the chelators of this invention toward nonproliferating mammalian cells in vitro.
To mature, nonreplicating cultures of HFF (human foreskin fibroblasts) kept in maintenance media was added N,N′,N″-tris(dihydroxyphosphorylmethyl)-1,4,7-triazacyclononane at a concentration of 0.3 mM. No effect on the resting cells was observed over a five-day period of observation.

[2] = room temperature; cited from earlier work
Sprague Dawley rats = assay: subacute toxicity, repeated intravenous doses to rats; format: in vivo; details: 0.05 millimoles per kg i.v. on 10 days
Description: Ten male Sprague Dawley rats 29 days old and weighing between 73.4 and 87.8 grams at the beginning of the experiment were randomized, employing the block stratification method, into two groups consisting of five rats each. On each of days 1, 2, 3, 6, 7, 8, 9, 10,13 and 14 of the experiment one set of rats received an intravenous dose of N,N′,N″-tri(dihydroxyphosphoryl methyl)-1,4,7-triazacyclononane equal to 0.05 millimoles per kg of initial body weight (experimental group) while the other group received an equivalent volume of normal saline solution. The weights of the animals were recorded three times per week and the animals were sacrificed on the 28th day, major organs removed and weighed and tissues removed for microscopic examination.

Laboratory mice = assay: acute in vivo toxicity, single intravenous dose to mice; details: 3.0 mM/kg single intravenous dose
Method: This example illustrates the low in vivo toxicity of a representative example of the chelators of this invention upon administration to mice.
Laboratory mice were treated by the intravenous administration of 3.0 mM/kg intravenously of the sodium salt of N,N′,N″-tris(dihydroxyphosphoryl-methyl)-1,4,7-triazacyclononane as a single intravenous dose. […] This in vivo LD50 toxicity dose results in an instantaneous in vivo concentration which is orders of magnitude greater than the dose of this agent which inhibits mammalian cell replication in vitro (0.009 mM/L).

[3] = tested on: mammalian cell replication; assay: inhibition of mammalian cell replication in vitro; format: cell-based

O=C(O)CN(CCN(CC(=O)O)CC(=O)O)CCN(CC(=O)O)CC(=O)O [DTPA, diethylene triamine pentaacetic acid, reference compound]
MIC (Corynebacterium Xerosis; medium containing 3.7 mg/L of Ca(II)): 36 µg/mL (≈ 91.5 µM) | MIC (Corynebacterium Xerosis; medium containing 137 mg/L of Ca(II)): 320 µg/mL (≈ 814 µM)

O=P(O)(O)CN1CCN(CP(=O)(O)O)CCN(CP(=O)(O)O)CC1 [N,N′,N″-Tris-(dihydroxyphosphorylmethyl)-1,4,7-triazacyclononane]
effect on the resting cells [1]: No effect | MIC (Corynebacterium Xerosis; Corynebacterium xerosis, medium containing 3.7 mg/L of Ca(II), read-out: MIC): 8 µg/mL (≈ 19.5 µM) | MIC (Corynebacterium Xerosis; Corynebacterium xerosis, medium containing 137 mg/L of Ca(II), read-out: MIC): 5 µg/mL (≈ 12.2 µM) | time to achieve equilibrium with the cations [2]: many months | differences between tissues upon microscopic examination of major organs vs control group (Sprague Dawley rats; necropsy on the 28th day): no differences | difference in weight or rate of weight gain vs control group (Sprague Dawley rats; period of injections and two-week post-injection period): no statistically significant difference | differences in weights of major organs vs control group (Sprague Dawley rats; sacrificed on the 28th day): no differences

O=P([O-])([O-])CN1CCN(CP(=O)(O)O)CCN(CP(=O)(O)O)CC1.[Na+].[Na+] [sodium salt of N,N′,N″-tris(dihydroxyphosphoryl-methyl)-1,4,7-triazacyclononane]
mice surviving for over 14 days (Laboratory mice): Over 50% | dose which inhibits mammalian cell replication in vitro [3]: 0.009 mM/L
